US7524964B2, “Tetrahydrothiopyrano pyrazole cannabinoid modulators” (Janssen Pharmaceutica NV, priority 2005, dated 2009)
Read-outs that look alike come from different tables or passages of the source.

Tests used:
[1] = target: human CB1 receptor (Homo sapiens, UniProt P21554); experiment: Binding assay, cannabinoid CB1 receptor ([3H]-CP-55,940 displacement); design: expressed in transfected cells; host or cells: SK-N-MC cells, pcDNA3 CB-1 (human), semi-purified membranes; settings: for inhibition at 0.2 µM: test concentration 0.2 μM (superscript a); for inhibition at 0.2 µM / inhibition at 1 µM: read-out: CB1 binding percent inhibition; for inhibition at 1 µM: test concentration 1 μM (superscript b)
Experimental: (§1) Binding Assay for CB1 or CB2 Agonists or Inverse Agonists
(§2) The human CB-1 and CB-2 receptors were stably expressed in SK-N-MC cells transfected with pcDNA3 CB-1 (human) or pcDNA3 CB-2 (human). The cells were grown in T-180 cell culture flasks under standard cell culture conditions at 37° C. in a 5% CO2 atmosphere. The cells were harvested by trypsinization and homogenized in a homogenization buffer (10 mM Tris, 0.2 mM MgCl2, 5 mM KCl, with protease inhibitors aprotinin, leupeptin, pepstatin A and bacitracin) and centrifuged (2000 g). The supernatant was then centrifuged in 2M sucrose (31,300 g) to produce a semi-purified membrane pellet. The pellet was resuspended in homogenization and store at −80° C.
(§3) On the day of the assay, the pellet was thawed on ice and diluted in assay buffer (50 mM Tris-HCl, 5 mM MgCl2, 2.5 mM EDTA, 0.5 mg/mL fatty acid free bovine serum albumin, pH 7.5). The diluted membrane was added with buffer, test compound or standard and the radioligand [H]^3+-CP-55,940_(0.2 nM) to the wells of a 96-well polypropylene plate. Non-specific binding was measured in wells containing 10 uM WIN 55,212. The plate was covered and incubated for 90 minutes at 30° C. The contents were then aspirated onto a Packard Unifilter G/C filter bottom plate prewet with 0.5% polyethyleneimine. The wells of the polypropylene plate were rinsed and aspirated seven times with a 0.9% saline-0.5% Tween 20 solution. The Unifilter plate was dried, a scintillation cocktail was added to each well and the counts representing binding were quantitated in a TopCount scintillation counter.
(§4) The IC50 binding values for compounds tested were calculated by linear regression and were obtained from studies in which varying compound concentrations were used. Where an IC50 was not obtained, test results are provided as percent inhibition at a test concentration of ^a0.2 μM, ^b1 μM or ^c10 μM.

[2] = target: T1, human CB-2 receptor (Homo sapiens, UniProt P34972); experiment: Binding assay, cannabinoid CB2 receptor ([3H]-CP-55,940 displacement); settings: read-out: CB2 binding percent inhibition; for inhibition at 1 µM: test concentration 1 μM (superscript b)
T1 construct: expressed in transfected cells; host or cells: SK-N-MC cells, pcDNA3 CB-2 (human), semi-purified membranes
Experimental: as §1, §2, §3, §4

[3] = test concentration 0.2 μM (superscript a)

T1 sequence (P34972 whole entry): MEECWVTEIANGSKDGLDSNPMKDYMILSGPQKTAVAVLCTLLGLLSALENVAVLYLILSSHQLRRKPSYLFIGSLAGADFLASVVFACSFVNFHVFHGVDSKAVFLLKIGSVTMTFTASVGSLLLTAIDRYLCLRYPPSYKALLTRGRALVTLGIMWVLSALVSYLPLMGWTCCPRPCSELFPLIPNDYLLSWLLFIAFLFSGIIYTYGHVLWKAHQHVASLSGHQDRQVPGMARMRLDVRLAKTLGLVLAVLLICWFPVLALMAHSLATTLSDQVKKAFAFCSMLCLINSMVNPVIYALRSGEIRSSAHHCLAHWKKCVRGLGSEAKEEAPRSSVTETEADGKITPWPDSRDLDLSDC
Sequence of human CB1 receptor (P21554 whole entry): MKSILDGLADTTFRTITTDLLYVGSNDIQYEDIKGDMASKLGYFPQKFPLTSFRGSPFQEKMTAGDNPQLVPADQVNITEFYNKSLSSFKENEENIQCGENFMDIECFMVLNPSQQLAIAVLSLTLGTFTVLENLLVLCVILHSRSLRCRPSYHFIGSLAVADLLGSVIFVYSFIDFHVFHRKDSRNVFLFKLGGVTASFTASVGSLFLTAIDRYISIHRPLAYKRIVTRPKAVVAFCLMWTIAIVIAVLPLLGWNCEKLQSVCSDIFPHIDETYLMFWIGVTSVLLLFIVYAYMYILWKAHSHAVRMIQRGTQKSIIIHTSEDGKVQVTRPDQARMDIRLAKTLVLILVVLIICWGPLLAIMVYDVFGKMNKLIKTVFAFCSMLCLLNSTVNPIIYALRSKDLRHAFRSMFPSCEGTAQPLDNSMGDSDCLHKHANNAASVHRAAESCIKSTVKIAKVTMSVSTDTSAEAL

Row | SMILES | IC50 [1] [nM] | inhibition at 0.2 µM [2, 3] [%] | inhibition at 0.2 µM [1] [%] | further results
1 | O=C(NN1CC2CCCC2C1)c1nn(-c2ccc(Cl)cc2Cl)c2c1CS(=O)(=O)C/C2=C\c1ccc(Cl)o1 (stereo not drawn) [Cpd 121, (7Z)-7-(5-chloro-furan-2-ylmethylene)-1-(2,4-dichloro-phenyl)-5,5-dioxo-4,5,6,7-tetrahydro-1H-5λ^6-thiopyrano[4,3-c]pyrazole-3-carboxylic acid (hexahydro-cyclopenta[c]pyrrol-2-yl)-amide] | 48 | 15 | – | –
2 | O=C(N[C@@H]1c2ccccc2C[C@@H]1O)c1nn(-c2ccc(Cl)cc2Cl)c2c1CSC/C2=C\c1ccc(F)cc1 [Cpd 58, (7Z)-1-(2,4-dichloro-phenyl)-7-(4-fluoro-benzylidene)-1,4,6,7-tetrahydro-thiopyrano[4,3-c]pyrazole-3-carboxylic acid [(1R,2S)-2-hydroxy-indan-1-yl]-amide] | 40 | – | – | inhibition at 0.2 µM [2]: 25%
3 | CC(C)(C)OC(=O)N1CCN(NC(=O)c2nn(-c3ccc(Cl)cc3Cl)c3c2CSC/C3=C\c2ccc(F)cc2)CC1 [Cpd 64, 4-{[(7Z)-1-(2,4-dichloro-phenyl)-7-(4-fluoro-benzylidene)-1,4,6,7-tetrahydro-thiopyrano[4,3-c]pyrazole-3-carbonyl]-amino}-piperazine-1-carboxylic acid tert-butyl ester] | 24 | – | – | inhibition at 0.2 µM [2]: 0%
4 | C[C@H](NC(=O)c1c2c(nn1-c1ccc(Cl)cc1Cl)/C(=C/c1ccc(F)cc1)CS(=O)(=O)C2)c1ccccc1 [Cpd 86, (7Z)-2-(2,4-dichloro-phenyl)-7-(4-fluoro-benzylidene)-5,5-dioxo-4,5,6,7-tetrahydro-2H-5λ^6-thiopyrano[4,3-c]pyrazole-3-carboxylic acid [(1S)-1-phenyl-ethyl]-amide] | 21 | 14 | – | –
5 | O=C(NNC1CCCCC1)c1nn(-c2ccc(Cl)cc2Cl)c2c1CSC/C2=C\c1ccc(F)cc1 [Cpd 115, (7Z)-1-(2,4-dichloro-phenyl)-7-(4-fluoro-benzylidene)-1,4,6,7-tetrahydro-thiopyrano[4,3-c]pyrazole-3-carboxylic acid N′-cyclohexyl-hydrazide] | 79 | 19 | – | –
6 | O=C(NN1CCN(CCO)CC1)c1nn(-c2ccc(Cl)cc2Cl)c2c1CSC/C2=C\c1ccc(F)cc1 [Cpd 114, (7Z)-1-(2,4-dichloro-phenyl)-7-(4-fluoro-benzylidene)-1,4,6,7-tetrahydro-thiopyrano[4,3-c]pyrazole-3-carboxylic acid [4-(2-hydroxy-ethyl)-piperazin-1-yl]-amide] | – | 5 | 6 | –
7 | O=C(NN1CCCCC1)c1c2c(nn1-c1ccc(Cl)cc1Cl)/C(=C/c1ccc(F)cc1)CSC2 [Cpd 88, (7Z)-2-(2,4-dichloro-phenyl)-7-(4-fluoro-benzylidene)-2,4,6,7-tetrahydro-thiopyrano[4,3-c]pyrazole-3-carboxylic acid piperidin-1-ylamide] | – | 9 | 46 | –
8 | C[C@H](NS(=O)(=O)/C=C/c1c2c(nn1Cc1ccccc1)CCSC2)c1ccccc1 [Cpd 5, (E)-2-(2-benzyl-2,4,6,7-tetrahydro-thiopyrano[4,3-c]pyrazol-3-yl)-ethenesulfonic acid [(1S)-1-phenyl-ethyl]-amide] | – | – | – | inhibition at 1 µM [1]: 9%; inhibition at 1 µM [2]: 9%
9 | CCOC(=O)[C@@H]1C2CCC(C2)[C@@H]1NC(=O)c1nn(-c2ccc(F)cc2F)c2c1CS(=O)(=O)C[C@H]2Cc1cccc(F)c1 (stereo partly drawn) [Cpd 50, (2R,3S)-3-{[1-(2,4-difluoro-phenyl)-(7S)-(3-fluoro-benzyl)-5,5-dioxo-4,5,6,7-tetrahydro-1H-5λ^6-thiopyrano[4,3-c]pyrazole-3-carbonyl]-amino}-bicyclo[2.2.1]heptane-2-carboxylic acid ethyl ester] | – | 24 | 50 | –
10 | C[C@@H](NC(=O)c1nn(-c2ccc(Cl)cc2Cl)c2c1CSC/C2=C\c1ccc(F)cc1)c1ccccc1 [Cpd 63, (7Z)-1-(2,4-dichloro-phenyl)-7-(4-fluoro-benzylidene)-1,4,6,7-tetrahydro-thiopyrano[4,3-c]pyrazole-3-carboxylic acid [(1R)-1-phenyl-ethyl]-amide] | 9 | 6 | – | –
11 | O=C(NN1CCCCC1)c1nn(-c2ccc(F)cc2F)c2c1CS(=O)(=O)C/C2=C\c1ccc(F)cc1 [Cpd 106, (7Z)-1-(2,4-difluoro-phenyl)-7-(4-fluoro-benzylidene)-5,5-dioxo-4,5,6,7-tetrahydro-1H-5λ^6-thiopyrano[4,3-c]pyrazole-3-carboxylic acid piperidin-1-ylamide] | – | 6 | 32 | –
12 | O=C(NN1CCCC1)c1nn(-c2ccc(Cl)cc2)c2c1CSC/C2=C\c1ccc(F)cc1 [Cpd 102, (7Z)-1-(4-chloro-phenyl)-7-(4-fluoro-benzylidene)-1,4,6,7-tetrahydro-thiopyrano[4,3-c]pyrazole-3-carboxylic acid pyrrolidin-1-ylamide] | – | 23 | 76 | –
13 | O=C(NN1CCCCC1)c1nn(-c2ccc(Cl)cc2Cl)c2c1C[S+]([O-])C/C2=C\c1ccc(F)cc1 (stereo not drawn) [Cpd 79, (7Z)-1-(2,4-dichloro-phenyl)-7-(4-fluoro-benzylidene)-5-oxo-4,5,6,7-tetrahydro-1H-5λ^4-thiopyrano[4,3-c]pyrazole-3-carboxylic acid piperidin-1-ylamide] | 160 | 10 | – | –
14 | C[C@H](NC(=O)c1nn(-c2ccc(Cl)cc2Cl)c2c1CS(=O)(=O)C/C2=C\c1ccc(F)cc1)c1ccccc1 [Cpd 65, (7Z)-1-(2,4-dichloro-phenyl)-7-(4-fluoro-benzylidene)-5,5-dioxo-4,5,6,7-tetrahydro-1H-5λ^6-thiopyrano[4,3-c]pyrazole-3-carboxylic acid [(1S)-1-phenyl-ethyl]-amide] | 5 | 17 | – | –
15 | C[C@H](NC(=O)c1nn(-c2ccc(Cl)cc2Cl)c2c1C[S+]([O-])C/C2=C\c1ccc(F)cc1)c1ccccc1 (stereo partly drawn) [Cpd 74, (7Z)-1-(2,4-dichloro-phenyl)-7-(4-fluoro-benzylidene)-5-oxo-4,5,6,7-tetrahydro-1H-5λ^4-thiopyrano[4,3-c]pyrazole-3-carboxylic acid [(1S)-1-phenyl-ethyl]-amide] | – | 8 | 45 | –
16 | C[C@@H](NC(=O)c1nn(-c2ccc(Cl)cc2Cl)c2c1CSC/C2=C\c1ccc(Br)cc1)c1ccccc1 [Cpd 129, (7Z)-(4-Bromo-benzylidene)-1-(2,4-dichloro-phenyl)-1,4,6,7-tetrahydro-thiopyrano[4,3-c]pyrazole-3-carboxylic acid [(1R)-1-phenyl-ethyl]-amide] | 6 | – | – | inhibition at 0.2 µM [2]: 26%
17 | C[C@@H](NS(=O)(=O)/C=C/c1nn(-c2ccc(F)cc2F)c2c1CSCC2Cc1cccc(F)c1)C1CCCCC1 (stereo partly drawn) [Cpd 39, (E)-2-[1-(2,4-difluoro-phenyl)-7-(3-fluoro-benzyl)-1,4,6,7-tetrahydro-thiopyrano[4,3-c]pyrazol-3-yl]-ethenesulfonic acid [(1R)-1-cyclohexyl-ethyl]-amide] | – | 37 | 55 | –
18 | C[C@@H](NS(=O)(=O)/C=C/c1c2c(nn1Cc1ccccc1)CCS(=O)(=O)C2)c1ccccc1 [Cpd 4, (E)-2-(2-benzyl-5,5-dioxo-4,5,6,7-tetrahydro-2H-5λ^6-thiopyrano[4,3-c]pyrazol-3-yl)-ethenesulfonic acid [(1R)-1-phenyl-ethyl]-amide] | – | – | – | inhibition at 1 µM [1]: 12%; inhibition at 1 µM [2]: 0%
